Active and inactive are the calls of the source.
Columns and labels:
Bcl-2-like protein 1 = Bcl-2-like protein 1 (Homo sapiens, UniProt Q07817); assay: blockers of BCLXL peptide binding – biochemical, fluorescence polarization, 1536-well, selectivity assay for MCL1 inhibitor project, dose response (AID 2218)
[1] = viability loss in THP-1 monocytes – THP-1 cells, cytotoxicity control for Vif-APOBEC3G degradation inhibitor project, dose response (AID 1117359); type: functional; settings: THP-1
Protein Tat = Protein Tat (Human immunodeficiency virus type 1 group M subtype B (isolate HXB2)(HIV-1), UniProt P04608); type: functional;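 further: tat binding to TAR RNA read out by fluorescence polarization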
Sequence of Protein Tat (P04608 whole entry): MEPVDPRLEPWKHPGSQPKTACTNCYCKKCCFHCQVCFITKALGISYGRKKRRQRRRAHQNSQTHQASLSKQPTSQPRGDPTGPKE

[2] = target: Induced myeloid leukemia cell differentiation protein Mcl-1 (Homo sapiens, UniProt Q07820); assay: blockers of MCL1 binding to BIM peptide – biochemical, fluorescence polarization, BIM-BH3 peptide, 1536-well, dose response (AID 2217)
Sequence of Induced myeloid leukemia cell differentiation protein Mcl-1 (Q07820 whole entry): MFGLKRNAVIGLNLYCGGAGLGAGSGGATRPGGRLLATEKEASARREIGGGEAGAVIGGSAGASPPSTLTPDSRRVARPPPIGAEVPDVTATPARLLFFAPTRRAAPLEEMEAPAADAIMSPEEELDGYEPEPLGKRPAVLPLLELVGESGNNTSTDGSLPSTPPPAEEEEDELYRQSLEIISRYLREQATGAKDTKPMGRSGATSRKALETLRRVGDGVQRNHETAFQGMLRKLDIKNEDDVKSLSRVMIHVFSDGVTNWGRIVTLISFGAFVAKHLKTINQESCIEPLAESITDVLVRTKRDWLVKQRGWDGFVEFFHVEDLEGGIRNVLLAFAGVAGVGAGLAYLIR

[3] = HIV-1 Vif–A3G interaction blockers – biochemical, TR-FRET, GST-Vif 1-94, biotin-A3G peptide, dose response retest, primary screen (AID 1117319); type: functional;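 further: TR-FRET signal of purified GST-Vif binding a biotinylated A3G peptide; inhibitors lower the FRET signal by blocking Vif and A3G binding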
[4] = target: Peroxisome proliferator-activated receptor gamma/Nuclear receptor coactivator 3 (Homo sapiens, UniProt P37231); type: functional;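 further: agonist potency for raising coactivator recruitment to the receptor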
Sequence of Peroxisome proliferator-activated receptor gamma/Nuclear receptor coactivator 3 (P37231 whole entry): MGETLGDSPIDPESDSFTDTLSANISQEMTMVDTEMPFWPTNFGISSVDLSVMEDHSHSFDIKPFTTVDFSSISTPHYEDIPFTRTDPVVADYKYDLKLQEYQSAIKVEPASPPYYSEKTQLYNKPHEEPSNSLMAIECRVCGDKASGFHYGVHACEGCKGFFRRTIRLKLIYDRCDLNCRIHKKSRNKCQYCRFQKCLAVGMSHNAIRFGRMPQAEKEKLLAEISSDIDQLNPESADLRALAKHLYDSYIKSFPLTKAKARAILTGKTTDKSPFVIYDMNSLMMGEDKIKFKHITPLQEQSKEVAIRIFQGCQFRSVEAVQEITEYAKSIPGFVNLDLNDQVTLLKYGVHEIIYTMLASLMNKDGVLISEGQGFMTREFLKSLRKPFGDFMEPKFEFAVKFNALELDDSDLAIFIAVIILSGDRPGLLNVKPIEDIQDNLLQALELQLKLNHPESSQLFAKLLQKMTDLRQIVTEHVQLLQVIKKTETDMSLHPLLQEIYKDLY
Sequence of Peroxisome proliferator-activated receptor gamma/Nuclear receptor coactivator 3 (Q9Y6Q9 whole entry, further chain): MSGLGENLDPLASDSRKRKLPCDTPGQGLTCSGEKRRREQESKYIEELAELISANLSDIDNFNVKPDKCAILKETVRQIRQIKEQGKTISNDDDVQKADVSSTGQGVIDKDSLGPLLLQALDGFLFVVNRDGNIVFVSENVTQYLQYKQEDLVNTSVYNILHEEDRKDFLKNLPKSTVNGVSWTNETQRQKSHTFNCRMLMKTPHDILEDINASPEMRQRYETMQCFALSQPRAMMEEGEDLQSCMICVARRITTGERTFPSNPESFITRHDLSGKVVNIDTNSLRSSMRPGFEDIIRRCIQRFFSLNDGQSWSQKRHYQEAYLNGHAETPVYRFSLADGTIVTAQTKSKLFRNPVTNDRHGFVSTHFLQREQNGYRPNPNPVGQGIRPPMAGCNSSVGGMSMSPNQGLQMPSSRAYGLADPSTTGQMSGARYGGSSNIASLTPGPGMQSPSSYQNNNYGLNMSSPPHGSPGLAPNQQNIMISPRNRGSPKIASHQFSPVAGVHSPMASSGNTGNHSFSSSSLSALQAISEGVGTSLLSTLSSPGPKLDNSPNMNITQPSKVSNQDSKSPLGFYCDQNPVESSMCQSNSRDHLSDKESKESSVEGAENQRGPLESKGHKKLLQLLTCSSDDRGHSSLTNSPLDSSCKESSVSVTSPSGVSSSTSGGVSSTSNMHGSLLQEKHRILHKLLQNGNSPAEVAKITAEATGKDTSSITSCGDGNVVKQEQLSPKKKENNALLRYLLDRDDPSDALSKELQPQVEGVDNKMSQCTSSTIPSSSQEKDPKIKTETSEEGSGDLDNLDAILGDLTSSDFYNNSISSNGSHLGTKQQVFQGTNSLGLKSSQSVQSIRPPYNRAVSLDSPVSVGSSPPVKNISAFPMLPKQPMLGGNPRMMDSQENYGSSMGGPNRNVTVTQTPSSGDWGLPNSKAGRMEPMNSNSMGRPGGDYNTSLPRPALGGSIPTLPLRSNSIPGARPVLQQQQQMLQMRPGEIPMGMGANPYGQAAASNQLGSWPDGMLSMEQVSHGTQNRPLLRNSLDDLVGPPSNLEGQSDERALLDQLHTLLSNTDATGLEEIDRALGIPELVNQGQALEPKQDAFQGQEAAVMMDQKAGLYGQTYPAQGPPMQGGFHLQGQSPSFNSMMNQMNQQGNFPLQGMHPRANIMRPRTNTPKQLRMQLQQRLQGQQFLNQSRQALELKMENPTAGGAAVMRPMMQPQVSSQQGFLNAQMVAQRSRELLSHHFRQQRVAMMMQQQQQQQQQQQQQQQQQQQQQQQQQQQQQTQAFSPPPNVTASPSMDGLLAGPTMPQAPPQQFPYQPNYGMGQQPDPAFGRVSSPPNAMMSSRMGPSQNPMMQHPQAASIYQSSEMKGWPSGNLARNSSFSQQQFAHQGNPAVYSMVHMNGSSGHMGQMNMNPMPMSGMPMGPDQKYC

[5] = target: Peroxisome proliferator-activated receptor gamma/Nuclear receptor coactivator 2 (Homo sapiens, UniProt P37231); type: functional;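 further: agonist potency for raising coactivator recruitment to the receptor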
Sequence of Peroxisome proliferator-activated receptor gamma/Nuclear receptor coactivator 2 (P37231 whole entry): as the sequence (P37231 whole entry) above
Sequence of Peroxisome proliferator-activated receptor gamma/Nuclear receptor coactivator 2 (Q15596 whole entry, further chain): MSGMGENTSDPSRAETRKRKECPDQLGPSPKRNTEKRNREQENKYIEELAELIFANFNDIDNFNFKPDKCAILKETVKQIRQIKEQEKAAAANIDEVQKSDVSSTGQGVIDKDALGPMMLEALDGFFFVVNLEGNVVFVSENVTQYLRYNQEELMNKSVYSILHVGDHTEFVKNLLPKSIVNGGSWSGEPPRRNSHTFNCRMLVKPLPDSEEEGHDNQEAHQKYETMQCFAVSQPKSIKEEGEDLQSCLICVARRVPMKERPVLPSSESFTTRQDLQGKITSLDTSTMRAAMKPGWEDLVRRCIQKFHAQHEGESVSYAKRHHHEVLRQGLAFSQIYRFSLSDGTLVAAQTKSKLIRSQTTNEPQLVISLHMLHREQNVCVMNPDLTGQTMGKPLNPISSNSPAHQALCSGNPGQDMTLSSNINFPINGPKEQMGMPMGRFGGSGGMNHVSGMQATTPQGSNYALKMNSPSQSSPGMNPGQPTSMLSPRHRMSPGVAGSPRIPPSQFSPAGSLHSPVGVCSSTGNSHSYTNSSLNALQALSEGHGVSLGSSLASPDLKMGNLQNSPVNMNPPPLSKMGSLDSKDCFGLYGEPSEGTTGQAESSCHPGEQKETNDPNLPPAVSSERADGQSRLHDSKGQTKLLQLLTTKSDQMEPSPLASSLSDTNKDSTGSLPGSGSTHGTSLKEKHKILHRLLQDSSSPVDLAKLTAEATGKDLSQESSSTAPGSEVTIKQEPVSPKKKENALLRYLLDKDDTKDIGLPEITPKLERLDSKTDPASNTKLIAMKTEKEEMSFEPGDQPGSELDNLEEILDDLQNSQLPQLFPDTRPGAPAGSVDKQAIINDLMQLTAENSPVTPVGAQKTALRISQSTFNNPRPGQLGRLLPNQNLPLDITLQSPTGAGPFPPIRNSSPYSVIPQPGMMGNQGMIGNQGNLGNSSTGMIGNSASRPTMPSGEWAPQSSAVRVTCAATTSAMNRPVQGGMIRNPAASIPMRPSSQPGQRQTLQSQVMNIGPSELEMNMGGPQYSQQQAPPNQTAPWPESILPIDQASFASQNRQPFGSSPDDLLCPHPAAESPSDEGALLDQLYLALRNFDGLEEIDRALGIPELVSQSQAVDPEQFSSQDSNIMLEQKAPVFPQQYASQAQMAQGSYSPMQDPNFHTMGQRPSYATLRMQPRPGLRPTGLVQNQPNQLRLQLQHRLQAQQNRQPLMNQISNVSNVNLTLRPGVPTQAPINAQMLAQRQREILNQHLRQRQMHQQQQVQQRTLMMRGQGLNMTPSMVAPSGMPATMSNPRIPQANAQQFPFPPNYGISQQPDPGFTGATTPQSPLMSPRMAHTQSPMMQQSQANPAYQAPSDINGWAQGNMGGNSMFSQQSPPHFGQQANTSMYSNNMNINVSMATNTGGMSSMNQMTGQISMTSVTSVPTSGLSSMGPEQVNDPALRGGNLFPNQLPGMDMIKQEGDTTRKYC

[6] = target: Peroxisome proliferator-activated receptor gamma/Nuclear receptor coactivator 1 (Homo sapiens, UniProt P37231); type: functional;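 further: agonist potency as compounds enhance coactivator SRC-1 recruitment to PPARgamma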
[7] = target: Mitogen-activated protein kinase 10 (Homo sapiens, UniProt P53779); assay: Dose response biochemical screening assay for inhibitors of c-Jun N-Terminal Kinase 3 (JNK3). [Related pubchem assays: 746 ]
Sequence of Mitogen-activated protein kinase 10 (P53779 whole entry): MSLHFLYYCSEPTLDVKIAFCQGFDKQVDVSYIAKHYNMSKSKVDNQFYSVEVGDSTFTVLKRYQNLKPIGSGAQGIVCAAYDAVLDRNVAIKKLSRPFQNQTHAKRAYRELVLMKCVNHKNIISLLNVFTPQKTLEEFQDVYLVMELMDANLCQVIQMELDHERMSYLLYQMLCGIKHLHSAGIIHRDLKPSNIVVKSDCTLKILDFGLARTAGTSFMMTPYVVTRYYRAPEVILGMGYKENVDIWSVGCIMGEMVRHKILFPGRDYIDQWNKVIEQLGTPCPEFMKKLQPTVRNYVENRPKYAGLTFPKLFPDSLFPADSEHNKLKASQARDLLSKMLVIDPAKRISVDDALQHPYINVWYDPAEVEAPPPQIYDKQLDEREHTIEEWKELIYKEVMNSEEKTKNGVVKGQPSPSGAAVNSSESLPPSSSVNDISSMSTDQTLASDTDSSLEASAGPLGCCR

Transthyretin = Transthyretin (Homo sapiens, UniProt P02766); assay: Luminescence-based cell-based high throughput dose response assay to identify activators of Transthyretin (TTR) transcription.; type: functional
[8] = target: T1, Calpain-2 catalytic subunit (Sus scrofa, UniProt P43367); assay: m-calpain protease blockers, concentration series – biochemical, fluorogenic peptide substrate, dose response (AID 1420); type: functional
T1 sequence (P43367 whole entry): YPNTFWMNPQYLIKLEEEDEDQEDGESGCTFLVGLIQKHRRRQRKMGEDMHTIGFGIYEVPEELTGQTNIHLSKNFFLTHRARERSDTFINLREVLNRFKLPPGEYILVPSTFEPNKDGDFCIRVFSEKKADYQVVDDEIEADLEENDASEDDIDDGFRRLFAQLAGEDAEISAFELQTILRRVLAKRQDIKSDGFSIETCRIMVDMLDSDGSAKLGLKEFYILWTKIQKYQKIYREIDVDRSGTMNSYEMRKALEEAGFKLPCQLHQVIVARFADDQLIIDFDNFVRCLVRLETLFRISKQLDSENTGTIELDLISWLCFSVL

[9] = target: Heat shock protein HSP 90-alpha (Homo sapiens, UniProt P07900); assay: Luminescence-based dose response biochemical high throughput screening assay for inhibitors of the Heat Shock Protein 90 (HSP90). [Related pubchem assays: 1831 (Summary AID.), 1846 (Confirmation screen.), 1789 (Primary screen.)]
[10] = target: Sphingosine 1-phosphate receptor 2 (Homo sapiens, UniProt O95136); assay: Dose Response Cell Based Assay for Agonists of the S1P2 Receptor. [Related pubchem assays: 729, 736, 843 ]; type: functional

Sequence of Bcl-2-like protein 1 (Q07817 whole entry): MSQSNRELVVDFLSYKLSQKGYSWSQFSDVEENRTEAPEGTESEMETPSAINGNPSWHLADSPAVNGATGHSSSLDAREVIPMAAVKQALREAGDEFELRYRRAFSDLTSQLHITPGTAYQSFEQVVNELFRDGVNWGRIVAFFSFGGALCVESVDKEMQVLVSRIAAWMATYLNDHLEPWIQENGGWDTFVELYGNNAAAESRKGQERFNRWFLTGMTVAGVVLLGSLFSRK

For `O=C(c1cc(-c2ccco2)nn1-c1cccc(Cl)c1)N1CCCCC1`, the IC50 (Bcl-2-like protein 1) was > 109 µM (not active), the CC50 [1] was > 40 µM (active) and the IC50 (Protein Tat) was > 100 µM (inconclusive). For the same compound, the IC50 [2] was > 109 µM (not active) and the IC50 [3] was > 60.7 µM (active).
With `Cn1c(C(=O)NCc2ccco2)cc2c(=O)[nH]c3ccccc3c21` the EC50 [4] was > 79.4 µM (not active), the EC50 [5] was > 79.4 µM (not active) and the EC50 [6] was > 79.4 µM (not active). The IC50 [7] was 31.4 µM (not active).
In the case of `c1cc2c(cc1C1=Nn3c(nnc3C3CCCCC3)SC1)OCO2`, the EC50 (Transthyretin) is reported as > 167 µM (inactive) and the IC50 [8] is reported as 10.9 µM (not active).
For `O=[N+]([O-])c1ccc(S(=O)(=O)N2CCN=C2SCc2ccc(F)cc2)cc1`, the IC50 [9] was 4.79 µM (active).
With `Cc1cccc(C(=O)NC2CC3CCCC(C2)N3C(=O)NC2CCCCC2)c1` (stereo not drawn) the EC50 [10] was > 50 µM (not active).

Source: ChEMBL document CHEMBL1201862, “PubChem BioAssay data set” (2004)
